We go through 30 compounds from US7410986B2, “4-6-diphenyl pyridine derivatives as antiinflammatory agents” (Bayer Aktiengesellschaft, priority 2000, dated 2008).

Counter-ions that a name gives are not always drawn.

One test concerns the target T1, human IKK-β (Homo sapiens, UniProt O14920).
T1 construct: A cDNA fragment encoding human IKK-β open reading frame was generated by PCR; His; made in house; host or cells: Sf21 insect cells (baculovirus); the GST-IκBα substrate was made in E. coli
T1 sequence (O14920 1-756): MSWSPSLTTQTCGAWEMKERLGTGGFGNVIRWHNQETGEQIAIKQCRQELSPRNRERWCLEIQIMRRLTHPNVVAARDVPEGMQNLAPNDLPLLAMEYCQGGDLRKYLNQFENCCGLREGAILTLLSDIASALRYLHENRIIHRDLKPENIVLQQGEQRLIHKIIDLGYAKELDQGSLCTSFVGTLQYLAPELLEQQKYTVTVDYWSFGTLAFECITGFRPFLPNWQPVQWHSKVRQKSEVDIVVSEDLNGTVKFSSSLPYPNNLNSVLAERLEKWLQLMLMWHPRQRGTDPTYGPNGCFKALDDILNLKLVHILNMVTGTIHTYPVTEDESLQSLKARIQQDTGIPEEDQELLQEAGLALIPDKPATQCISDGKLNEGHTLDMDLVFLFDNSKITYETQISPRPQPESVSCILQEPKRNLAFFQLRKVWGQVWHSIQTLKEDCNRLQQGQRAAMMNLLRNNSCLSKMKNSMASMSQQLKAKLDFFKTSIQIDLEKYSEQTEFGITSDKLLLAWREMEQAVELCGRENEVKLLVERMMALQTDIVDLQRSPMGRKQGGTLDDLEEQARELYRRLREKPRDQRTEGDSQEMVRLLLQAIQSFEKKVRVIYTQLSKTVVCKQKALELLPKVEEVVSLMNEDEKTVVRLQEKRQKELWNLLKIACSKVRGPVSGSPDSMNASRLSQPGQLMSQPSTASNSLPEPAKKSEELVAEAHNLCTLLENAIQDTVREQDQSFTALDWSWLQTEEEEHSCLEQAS
Description: IKK-β kinase inhibitory assay. Type of test: biochemical. To be noted: compounds of about 40 to 90% purity, read-out: In vitro activity grade (invitro, IC50). An excerpt:
IKK-β Kinase Inhibitory Assay.
• (1) Preparation of IKK-β Kinase Protein. • A cDNA fragment encoding human IKK-β open reading frame was generated by PCR with the use of a pair of primers designed from the published sequence (Woronicz J D et al. (1997) Science 278,866-869). A template was obtained from Quickclone cDNA (Clontech) using Elongase™ Amplification kit (Life Technologies). The DNA fragments generated by PCR were gel-purified and subcloned into pBluescript. The cDNA fragment cloned in pBluescript was inserted into pcDNA3.1/His C KpnI/NotI, and transferred into pVL1393 SmaI/XbaI (Pharmingen) to construct a baculovirus transfer vector. Then the vector, together with the linearized baculovirus (BaculoGold™, Pharmingen) was used to transfect Sf21 cells (Invitrogen, San Diego, Calif.). Generated recombinant baculovirus was cloned and amplified in Sf21 cells, grown in TNM-FH insect cell medium (Life Technologies, Inc.) supplemented with 10% FCS, […] Gentamycin, 0.1% Pluronic F-68 (Life Technologies, Inc.) as suspension culture (200 ml in 1 L Erlenmeyer flask; 27° C.; 130 rpm). Sf21 cells were infected with this amplified virus with a multiplicity of infection of 5 following standard protocols (Crossen R, Gruenwald S (1997) Baculovirus Expression Vector System Instruction Manual, Pharmingen Corporation) and harvested 48 hrs. later. The cells were lysed to obtain the produced chimeric protein of IKK-β kinase fused by histidine (His-tagged IKK-beta). • (2) The Preparation of Purified GST-IκBα Fusion Proteins • An expression vector containing the nucleotide sequence encoding fusion protein of GST with amino acid residues 1 to 54 of IκBα under the control of an IPTG-inducible promoter was constructed. The expression vector was introduced in E. coli and the transformant was cultured and lysed to obtain a GST-IκBα fusion protein. Then the resulting GST-IκBα fusion protein was purified and biotinated for kinase assay. • (3) The Measurement of IKK-β Kinase Activity • The 96-well format kinase assay of IKK-β was performed to test the inhibitory activity of the compounds of the present invention. First, 5 μl of a test compound was put in the presence of 2.5% dimethyl sulfoxide (DMSO) in each well in a U-bottomed 96-well plate (Falcon). For control wells of background (BG) and total phosphorylation (TP), 5 μl of 2.5% DMSO was put. Recombinant IKK-β (final 0.6 μg/ml) and bio-GST-IκBα (1-54) (final 0.2 μM) were diluted in 25 μl of 2×kinase buffer β (40 mM Tris-HCl, pH 7.6, 40 mM MgCl2, 40 mM β-glycerophosphate, 40 mM p-nitrophenyl-phosphate, 2 mM EDTA, 40 mM creatine phosphate, 2 mM DTT, 2 mM Na3VO4, 0.2 mg/ml BSA and 0.8 mM phenylmethylsulfonyl fluoride) and transferred to the 96-well plate. Bio-GST-IκBα (1-54) in 25 μl of 2×kinase buffer β without IKK-β was transferred to BG wells. Then 20 μl of 12.5 μM ATP, 62.5 μCi/ml [γ-^33P] ATP (Amersham Pharmacia Biotech) was added and the resulting mixture was incubated for 2 hrs. at room temperature. The kinase reactions were terminated by the addition of 150 μl of termination buffer (100 mM EDTA, 1 mg/ml BSA, 0.2 mg NaN3). One handred and fifty μl of the sample was transferred to a streptavidin-coated, white MTP (Steffens Biotechniche Analysen GmbH #08114E14. FWD) to capture the biotinylated substrates. After 1 hr. of incubation, non-bound radioactivity was eliminated by washing the wells five times with 300 μl of washing buffer including 0.9% NaCl and 0.1% (w/v) Tween-20 with the use of a MW-96 plate washer (BioTec). The bound radioactivity was determined after the addition of 170 μl MicroScint-PS scintillation cocktail (Packard) using a TopCount scintillation counter. Syk Tyrosine Kinase Inhibitory Assay for Selectivity. • (1) Preparation of Syk Protein • A cDNA fragment encoding human Syk openreading frame was cloned from total RNA of human Burkitt's lymphoma B cell lines, Raji (American Type Culture Collection), with the use of RT-PCR method. […]

For test [1], the system named is RANTES production in response to TNF-α from A549 cells. Description: RANTES production in response to TNF-α from A549 cells. Type of test: cell-based, human. To be noted: Homo sapiens, A549, 24 h, 100 ng/ml TNF-α, compounds of about 40 to 90% purity, read-out: Cellular activity grade (A549, IC50).

As to `N#Cc1c(-c2ccc(N3CCC[C@H]3CO)c(NC(=O)CCN3CCCCC3)c2)cc(-c2ccccc2O)nc1N` [Example 3-12], the IC50 (usually the concentration that gives 50% inhibition) on human IKK-β was 500 to 2000 nM; in test [1], 1000 to 10000 nM.
The corresponding values for `CCN(CC)c1ccc(-c2cc(-c3ccccc3O)nc(N)c2C#N)cc1NC(=O)CCN1CCCCC1` [Example 3-13] are 2000 to 10000 nM and 1000 to 10000 nM.
The corresponding values for `CN(C)[C@H]1CCN(c2ccc(-c3cc(-c4ccccc4O)nc(N)c3C#N)cc2NC(=O)CNCC2CC2)C1` [Example 3-14] are under 500 nM and 1000 to 10000 nM.
Take `CC(C)C[C@H](N)C(=O)Nc1cc(-c2cc(-c3ccccc3O)nc(N)c2C#N)ccc1N(C)Cc1ccccc1` [Example 3-15]: the half-maximal inhibitory concentration (IC50) at human IKK-β fell in the range of 2000 to 10000 nM; in test [1], 1000 to 10000 nM.
The corresponding values for `CC(C)C[C@H](N)C(=O)Nc1cc(-c2cc(-c3ccccc3O)nc(N)c2C#N)ccc1N1CCC(NC(=O)C(F)(F)F)C1` (stereo partly drawn) [Example 3-16] are under 500 nM and 1000 to 10000 nM.
Take `N#Cc1c(-c2ccc(N3CCC(NC(=O)C(F)(F)F)C3)c(NC(=O)CCN3CCCCC3)c2)cc(-c2ccccc2O)nc1N` (stereo not drawn) [Example 3-17]: the figures for the IC50 (at human IKK-β; in test [1]) were under 500 nM and 1000 to 10000 nM, respectively.
On the same counts, the results for `CN(C)c1ccc(-c2cc(-c3ccccc3O)nc(N)c2C#N)cc1NC(=O)CNCC1CC1` [Example 4-1, N^1-[5-[2-amino-3-cyano-6-(2-hydroxyphenyl)-4-pyridinyl]-2-(dimethylamino)phenyl]-N^2-(cyclopropylmethyl)glycinamide hydrochloride] are 500 to 2000 nM and 1000 to 10000 nM.
Regarding `CN1CCN(CC(=O)Nc2cccc(-c3cc(-c4ccccc4O)nc(N)c3C#N)c2)CC1` [Example 4-02], the concentration for half-maximal inhibition (IC50) on human IKK-β is 500 to 2000 nM; in test [1], 1000 to 10000 nM.
The corresponding values for `N#Cc1c(-c2cccc(NC(=O)CN3CCN(C(=O)c4ccco4)CC3)c2)cc(-c2ccccc2O)nc1N` [Example 4-03] are 2000 to 10000 nM and 1000 to 10000 nM.
On the same counts, the results for `N#Cc1c(-c2cccc(NC(=O)CN3CCN(C4CCCCC4)CC3)c2)cc(-c2ccccc2O)nc1N` [Example 4-04] are 500 to 2000 nM and 1000 to 10000 nM.
On the same counts, the results for `CC(=O)N1CCN(CC(=O)Nc2cccc(-c3cc(-c4ccccc4O)nc(N)c3C#N)c2)CC1` [Example 4-05] are 2000 to 10000 nM and over 10000 nM.
With `CCN1CCN(CC(=O)Nc2cccc(-c3cc(-c4ccccc4O)nc(N)c3C#N)c2)CC1` [Example 4-06], the IC50 on human IKK-β was in the range of 500 to 2000 nM; in test [1], 1000 to 10000 nM.
Turning to `N#Cc1c(-c2cccc(NC(=O)CN3CCNCC3)c2)cc(-c2ccccc2O)nc1N` [Example 4-07], the IC50 fell in the range of 500 to 2000 nM at human IKK-β and 1000 to 10000 nM in test [1].
The corresponding values for `N#Cc1c(-c2cccc(NC(=O)CN3CCN(CCO)CC3)c2)cc(-c2ccccc2O)nc1N` [Example 4-08] are 500 to 2000 nM and 1000 to 10000 nM.
Regarding `CN1CCN(CCC(=O)Nc2cccc(-c3cc(-c4ccccc4O)nc(N)c3C#N)c2)CC1` [Example 4-10], the IC50 is 500 to 2000 nM at human IKK-β and 1000 to 10000 nM in test [1].
On the same counts, the results for `N#Cc1c(-c2cccc(NC(=O)CCN3CCN(Cc4ccccc4)CC3)c2)cc(-c2ccccc2O)nc1N` [Example 4-11] are 2000 to 10000 nM and 1000 to 10000 nM.
For `CCN1CCN(CCC(=O)Nc2cccc(-c3cc(-c4ccccc4O)nc(N)c3C#N)c2)CC1` [Example 4-12], the IC50 on human IKK-β lay within 500 to 2000 nM; in test [1], 1000 to 10000 nM.
The corresponding values for `N#Cc1c(-c2cccc(NC(=O)CCN3CCN(CCO)CC3)c2)cc(-c2ccccc2O)nc1N` [Example 4-13] are 500 to 2000 nM and 1000 to 10000 nM.
In the case of `N#Cc1c(-c2cccc(NC(=O)CN3CC=CC3)c2)cc(-c2ccccc2O)nc1N` [Example 4-14], the IC50 on human IKK-β lay within 500 to 2000 nM; in test [1], 1000 to 10000 nM.
On the same counts, the results for `N#Cc1c(-c2cccc(NC(=O)CCN3CCCC4CCCCC43)c2)cc(-c2ccccc2O)nc1N` (stereo not drawn) [Example 4-15] are 500 to 2000 nM and 1000 to 10000 nM.
On the same counts, the results for `CCN1CCC(N(CC)CCC(=O)Nc2cccc(-c3cc(-c4ccccc4O)nc(N)c3C#N)c2)C1` (stereo not drawn) [Example 4-16] are 500 to 2000 nM and 1000 to 10000 nM.
On the same counts, the results for `N#Cc1c(-c2cccc(NC(=O)CNC3CCCC3)c2)cc(-c2ccccc2O)nc1N` [Example 4-17] are 500 to 2000 nM and 1000 to 10000 nM.
Take `N#Cc1c(-c2cccc(NC(=O)CNCC3CC3)c2)cc(-c2ccccc2O)nc1N` [Example 4-18]: the IC50 on human IKK-β is under 500 nM; in test [1], 1000 to 10000 nM.
The corresponding values for `CCCNCC(=O)Nc1cccc(-c2cc(-c3ccccc3O)nc(N)c2C#N)c1` [Example 4-19] are 500 to 2000 nM and 1000 to 10000 nM.
The corresponding values for `N#Cc1c(-c2cccc(NC(=O)CNCCCO)c2)cc(-c2ccccc2O)nc1N` [Example 4-20] are under 500 nM and over 10000 nM.
On the same counts, the results for `N#Cc1c(-c2cccc(NC(=O)CCNCC3CC3)c2)cc(-c2ccccc2O)nc1N` [Example 4-21] are 500 to 2000 nM and 1000 to 10000 nM.
As for `CN(C)CC(=O)Nc1cccc(-c2cc(-c3ccccc3O)nc(N)c2C#N)c1` [Example 4-22], the half-inhibitory concentration (IC50) on human IKK-β was 500 to 2000 nM; in test [1], 1000 to 10000 nM.
For the compound `N#Cc1c(-c2cccc(NC(=O)CN3CCCC3)c2)cc(-c2ccccc2O)nc1N` [Example 4-23], the results for the concentration for half-maximal inhibition (IC50) (at human IKK-β; in test [1]) were 500 to 2000 nM and 1000 to 10000 nM, respectively.
The corresponding values for `COCCNCC(=O)Nc1cccc(-c2cc(-c3ccccc3O)nc(N)c2C#N)c1` [Example 4-24] are 500 to 2000 nM and over 10000 nM.
On the same counts, the results for `COCCNCC(=O)Nc1cc(-c2cc(-c3ccccc3O)nc(N)c2C#N)ccc1Cl` [Example 4-25] are under 500 nM and over 10000 nM.
